The assay deals with alpha 1a receptors versus alpha 1b and alpha 1d receptors. The experiment in a line: Selective Binding Assays: binding to alpha 1a versus alpha 1b and alpha 1d receptors ([125I]-HEAT competition binding). The arrangement: species or system human. The note with it: alpha 1a versus both alpha 1b and alpha 1d; at least about. Here is the method: Membranes prepared from the stably transfected human alpha 1a cell line (ATCC CRL 11140) were used to identify compounds that bind to the human alpha 1a adrenergic receptor. These competition binding reactions (total volume=200 μl) contained 50 mM Tris-HCl pH. 7.4, 5 mM EDTA, 150 mM NaCl, 100 pM [^125 I]-HEAT, membranes prepared from the alpha 1a cell line and increasing amounts of unlabeled ligand. Reactions were incubated at room temperature for one hour with shaking. Reactions were filtered onto Whatman GF/C glass fiber filters with a Inotec 96 well cell harvester. Filters were washed three times with ice cold buffer and bound radioactivity was determined (Ki).
Membranes prepared from stably transfected human alpha 1d and alpha 1b cell lines (ATCC CRL 11138 and CRL 11139, respectively) were used to identify compounds that selectively bind to the human alpha 1a adrenergic receptor. These competition binding reactions (total volume=200 μl) contained 50 mM Tris-HCl pH. 7.4, 5 mM EDTA, 150 mM NaCl, 100 pM [^125 I]-HEAT, membranes prepared from cell lines transfected with the respective alpha 1 subtype expression plasmid and increasing amounts of unlabeled ligand. Reactions were incubated at room temperature for one hour with shaking. Reactions were filtered onto Whatman GF/C glass fiber filters with a Inotec 96 well cell harvester. Filters were washed three times with ice cold buffer and bound radioactivity was determined (Ki).

Structures are written as SMILES. Structures can show the parent of a compound that is named as a salt.

For `CC1CNC(=O)N(C(=O)NCCCN2CCC(c3ccc(F)cc3)CC2)C1c1ccc(F)c(F)c1` (single isomer, unassigned) [Example 22 (Isomer C), Hydrochloride], the “fold more selective in binding to alpha 1a receptors versus binding to the alpha 1b and alpha 1d receptors” value (shortened to “fold more selective in binding”) is reported as “at least 10 fold”. For `C[C@H](c1ccccc1)N1CCC(c2ccc(F)c(F)c2)N(C(=O)NCCCN2CCC(c3ccccn3)CC2)C1=O` (stereo partly drawn) [Example 15 (Table 1, entry 1), 4-(3,4-difluorophenyl)-1-((R)-α-methylbenzyl)-3-[(4'-(2-pyridyl)piperidin-1'-yl)propyl]aminocarbonyltetrahydropyrimidin-2-one], the “fold more selective in binding” value is “at least 10 fold”.

As for `C[C@H](c1ccccc1)N1CCC(c2ccc(F)c(F)c2)N(C(=O)NCCCN2CCC(c3ccccc3C#N)CC2)C1=O` (stereo partly drawn) [Example 15 (Table 1, entry 2), 4-(3,4-difluorophenyl)-1-((R)-α-methylbenzyl)-3-[(4'-(2-cyanophenyl)piperidin-1'-yl)propyl]aminocarbonyltetrahydro-pyrimidin-2-one], the “fold more selective in binding” value is “at least 10 fold”. Consider `COc1cc(F)ccc1[C@H]1CC[C@H](N2CC[C@@H](NC(=O)N3C(=O)N([C@H](C)c4ccccc4)CCC3c3ccc(F)c(F)c3)C2)CC1` (stereo partly drawn) [Example 15 (Table 1, entry 5), 3-[[3(R)-1-[trans-4-(2-methoxy-4-fluorophenyl)cyclohexyl]pyrrolidin-3-yl]-aminocarbonyl]-1-((R)-α-methylbenzyl)-4-(3,4-difluorophenyl)pyrimidin-2-one], for which the “fold more selective in binding” value is listed as “at least 10 fold”.

As to `CN1CCC(c2ccc(F)c(F)c2)N(C(=O)NCCCN2CCC(c3ccc(F)cc3)CC2)C1=O` (stereo not drawn) [Example 17, 4-(3,4-Difluorophenyl)-1-methyl-3-[(4'-(4-fluorophenyl)piperidin-1'-yl)propyl]aaminocarbonyltetrahydropyrimidin-2-one Hydrochloride], the “fold more selective in binding” value was “at least 10 fold”. As for `CC1(C)CN(Cc2ccccc2)C(=O)N(C(=O)NCCCN2CCC(c3ccc(F)cc3)CC2)C1c1ccc(F)c(F)c1` [Example 19, (4R)- and (4S)-4-(3,4-Difluorophenyl)-5,5-dimethyl-1-benzyl-3-[(4'-(4-fluorophenyl)piperidin-1'-yl)propyl]aminocarbonyltetrahydropyrimidin-2-one Hydrochloride], the “fold more selective in binding” value was “at least 10 fold”.

The record behind these values is patent US6326372A, “Lactam and cyclic urea derivatives useful as alpha 1a adrenoceptor antagonists” (Merck & Co., Inc., priority 2000, dated 2001).
